Where two headings read alike, the source gives them in different places. Bridge positions count the residues as written; N and C are the ends. Square brackets hold non-standard residues; d marks the D form. Peptide text beside a SMILES is read from it. * marks the point of attachment. X1 = CCCN1C[C@H](CSCC(=O)*)C[C@@H]2c3cccc4[nH]cc(c34)C[C@H]21; Tyr(3-I) = N[C@@H](Cc1ccc(O)c(I)c1)C(=O)O; Dopa = N[C@@H](Cc1ccc(O)c(O)c1)C(=O)O; Abu = CC[C@H](N)C(=O)O
What was measured:
[1] = molecular target: hDA2; assay: Dopamine-2 receptor radioligand binding assay; design: species or system human; conditions: [3H]spiperone
Experimental: Specificity and selectivity for the dopamine-2 receptor of the dopamine analogues used to synthesize the somatostatin-dopamine chimers may be determined by a radioligand binding assay as follows.
Crude membranes were prepared by homogenization of frozen rat corpus striatum (Zivic Laboratories, Pittsburgh, Pa., USA) in 20 mL of ice-cold 50 mM Tris-HCl with a Brinkman Polytron cell disrupter (setting 6, 15 sec). Buffer was added to obtain a final volume of 40 mL, and the homogenate was centrifuged in a Sorval SS-34 rotor at 39,000 g for 10 minutes at 0-4° C. The resulting supernatant was decanted and discarded. The pellet was rehomogenized in ice-cold buffer, pre-incubated at 37° C. for 10 min, diluted, and centrifuged as before. The final pellet was resuspended in buffer and held on ice for the receptor binding assay.
For assay, aliquots of the washed membrane preparations and test compounds were incubated for 15 minutes (37° C.) with 0.25 nM [^3HI]spiperone (16.5 Ci.mmol, New England Nuclear, Boston, Mass., USA) in 50 mM Tris HCl, 120 mM NaCl, 5 mM KCl, 2 mM CaCl2, 1 mM MgCl2. The final assay volume was 1.0 mL. The incubations were terminated by rapid filtration through GF/B glass fibre filters using a Brandel filtration manifold. Each tube and filter was then washed three times with 5-mL aliquots of ice-cold buffer. Specific binding was defined as the total radioligand bound minus that bound in the presence of 1000 nM (+) butaclamol.
(§1) Using the discussed assays, the inhibition constants (Ki) for the five human somatostatin receptors (hSSTR1-hSSTR5) and the dopamine-2 receptor (hUTII and hDA2) were measured for the exemplified somatostatin-dopamine conjugates, as follows: […]

[2] = molecular target: T1, hsst5 (Homo sapiens, UniProt P35346); assay: Somatostatin receptor radioligand binding assay, hsst5; conditions: CHO-K1 membranes, [125I-Tyr11]SS-14
T1 construct: expressed in transfected cells
T1 sequence (P35346 whole entry): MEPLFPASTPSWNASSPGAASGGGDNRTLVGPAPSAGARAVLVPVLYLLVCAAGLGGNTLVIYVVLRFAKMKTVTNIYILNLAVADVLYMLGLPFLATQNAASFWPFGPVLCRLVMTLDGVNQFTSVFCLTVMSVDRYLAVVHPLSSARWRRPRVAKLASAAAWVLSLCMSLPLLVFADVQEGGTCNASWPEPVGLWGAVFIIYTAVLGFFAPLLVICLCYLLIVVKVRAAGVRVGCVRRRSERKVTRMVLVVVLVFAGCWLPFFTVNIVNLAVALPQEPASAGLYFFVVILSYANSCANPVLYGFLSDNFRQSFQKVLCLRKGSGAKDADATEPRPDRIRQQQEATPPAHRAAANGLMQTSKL
Experimental: (§2) Specificity and selectivity of the somatostatin analogues used to synthesize the somatostatin-dopamine chimers were determined by a radioligand binding assay on CHO-K1 cells stably transfected with each of the SSTR subtypes, as follows. Somatostatin analogs are also described in U.S. Patent Application Publication No. 02210006790. The complete coding sequences of genomic fragments of the SSTR 1 (e.g., Genbank accession No. M81829), SSTR 2 (e.g., Genbank accession No. M81830), SSTR 3 (e.g., Genbank accession No. L07062), and SSTR 4 (e.g., Genbank accession No. AL049651) genes and a cDNA clone for SSTR 5 (e.g., Genbank accession No. D16827) was subcloned into the mammalian expression vector pCMV (Life Technologies, Milano, Italy). Other SSTR sequences are known to the skilled artisan. Clonal cell lines stably expressing SSTR's 1-5 were obtained by transfection into CHO-K1 cells (ATCC, Manassas, Va., USA) using the calcium phosphate co-precipitation method (Davis L, et al., 1994 In: Basic methods in Molecular Biology, 2nd edition, Appleton & Lange, Norwalk, Conn., USA: 611-646). The plasmid pRSV-neo (ATCC) was included as a selectable marker. Clonal cell lines were selected in RPMI 1640 media containing 0.5 mg/mL of G418 (Life Technologies, Milano, Italy), ring cloned, and expanded into culture.
(§3) Membranes for in vitro receptor binding assays were obtained by homogenizing the CHO-K1 cells expressing the SSTR's subtypes in ice-cold 50 mM Tris-HCl and centrifuging twice at 39,000 g (10 min), with an intermediate resuspension in fresh buffer. The final pellets were resuspended in 10 mM Tris-HCl for assay.
(§4) For the SSTR 1, 3, 4, and 5 assays, aliquots of the membrane preparations were incubated 90 minutes at 25° C. with 0.05 nM [^125I-Tyr11]SS-14 in 50 mM HEPES (pH 7.4) containing 10 mg/mL BSA, 5 mM MgCl2, 200 KIU/mL Trasylol, 0.02 mg/mL bacitracin, and 0.02 mg/mL phenylmethylsuphonyl fluoride. The final assay volume was 0.3 mL.
(§5) For the SSTR 2 assay, 0.05 nM [^125I]MK-678 was employed as the radioligand and the incubation time was 90 minutes at 25° C. The incubations were terminated by rapid filtration through GF/C glass microfiber filters (Whatman Co.) (pre-soaked in 0.3% polyethylenimine) using a BRANDEL filtration manifold. Each tube and filter was washed three times with 5 mL aliquots of ice-cold buffer. Specific binding was defined as the total radioligand bound minus that bound in the presence of 1000 nM SS-14 for SSTR 1, 3, 4, and 5, or 1000 nM MK-678 for SSTR2.

[3] = molecular target: T2, hsst3 (Homo sapiens, UniProt P32745); assay: Somatostatin receptor radioligand binding assay, hsst3
T2 construct: expressed in transfected cells
T2 sequence (P32745 whole entry): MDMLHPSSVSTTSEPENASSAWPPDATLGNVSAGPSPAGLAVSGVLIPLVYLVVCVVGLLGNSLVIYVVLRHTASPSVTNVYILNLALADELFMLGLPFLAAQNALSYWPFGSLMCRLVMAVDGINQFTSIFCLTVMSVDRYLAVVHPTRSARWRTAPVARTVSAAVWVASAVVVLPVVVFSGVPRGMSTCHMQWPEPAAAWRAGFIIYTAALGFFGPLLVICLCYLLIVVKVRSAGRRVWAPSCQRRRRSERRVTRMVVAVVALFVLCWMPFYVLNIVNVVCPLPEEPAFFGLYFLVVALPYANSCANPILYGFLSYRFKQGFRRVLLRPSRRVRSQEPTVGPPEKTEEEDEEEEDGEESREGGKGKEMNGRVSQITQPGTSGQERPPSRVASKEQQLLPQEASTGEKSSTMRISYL
Experimental: as §2, §3, §4, §5, §1

[4] = molecular target: T3, hsst2 (Homo sapiens, UniProt P30874); assay: Somatostatin receptor radioligand binding assay, hsst2; conditions: CHO-K1 membranes, [125I]MK-678
T3 construct: expressed in transfected cells
T3 sequence (P30874 whole entry): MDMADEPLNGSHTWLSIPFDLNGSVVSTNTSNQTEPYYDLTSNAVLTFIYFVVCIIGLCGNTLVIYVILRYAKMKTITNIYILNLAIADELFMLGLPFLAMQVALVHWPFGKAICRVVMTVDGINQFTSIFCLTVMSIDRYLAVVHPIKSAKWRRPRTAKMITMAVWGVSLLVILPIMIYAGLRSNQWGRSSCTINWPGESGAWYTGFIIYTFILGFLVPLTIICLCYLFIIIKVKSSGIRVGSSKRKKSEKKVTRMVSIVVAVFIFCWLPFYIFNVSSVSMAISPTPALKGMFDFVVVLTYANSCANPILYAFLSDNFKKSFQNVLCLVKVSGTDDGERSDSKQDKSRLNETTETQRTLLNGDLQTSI
Experimental: as §2, §3, §5

[5] = molecular target: T4, hUTII (Homo sapiens, UniProt Q9UKP6); assay: hUTII inhibition constant; assay type: binding
T4 sequence (Q9UKP6 1-389): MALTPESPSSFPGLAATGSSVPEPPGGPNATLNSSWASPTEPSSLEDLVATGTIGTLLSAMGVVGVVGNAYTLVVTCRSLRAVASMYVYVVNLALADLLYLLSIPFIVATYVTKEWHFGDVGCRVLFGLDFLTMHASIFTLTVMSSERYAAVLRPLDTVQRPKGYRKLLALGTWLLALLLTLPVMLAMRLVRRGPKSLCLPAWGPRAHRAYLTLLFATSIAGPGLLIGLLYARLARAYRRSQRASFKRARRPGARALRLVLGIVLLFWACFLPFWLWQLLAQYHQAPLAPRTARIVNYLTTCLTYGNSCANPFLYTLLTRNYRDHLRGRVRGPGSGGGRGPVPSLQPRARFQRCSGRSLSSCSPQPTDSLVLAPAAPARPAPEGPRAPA
Experimental: as §1

[6] = CHO-K1 membranes, [125I-Tyr11]SS-14, read-out: hsst3 Ki

Row | SMILES | Ki [1] [nM] | Ki ([2]; read-out: hsst5 Ki) [nM] | Ki [3, 6] [nM] | Ki ([4]; read-out: hsst2 Ki) [nM] | Ki ([5]; read-out: hUTII Ki) [nM] | Ki [3] [nM] | Ki ([4]; hsst2 Ki) [nM] | Ki ([2]; hsst5 Ki) [nM] | Ki ([5]; hUTII Ki) [nM]
1 | CCCN1C[C@H](CSCC(=O)NCCCC[C@@H](NC(=O)CSC[C@@H]2C[C@@H]3c4cccc5[nH]cc(c45)C[C@H]3N(CCC)C2)C(=O)N[C@H](Cc2ccccc2)C(=O)N[C@H]2CSSC[C@@H](C(=O)N[C@H](C(N)=O)[C@@H](C)O)NC(=O)[C@H]([C@@H](C)O)NC(=O)[C@H](CCCCN)NC(=O)[C@@H](Cc3c[nH]c4ccccc34)NC(=O)[C@H](Cc3ccc(O)c(I)c3)NC2=O)C[C@@H]2c3cccc4[nH]cc(c34)C[C@H]21 [Example 15] | 18.3 | 6.29 | – | – | – | – | – | – | –
2 | CCCN1C[C@H](CSCC(=O)NCCCC[C@@H](NC(=O)CSC[C@@H]2C[C@@H]3c4cccc5[nH]cc(c45)C[C@H]3N(CCC)C2)C(=O)N[C@H](Cc2ccc(O)cc2)C(=O)N[C@H](Cc2ccc(O)cc2)C(=O)N[C@H]2CSSC[C@@H](C(=O)N[C@H](C(N)=O)[C@@H](C)O)NC(=O)[C@H]([C@@H](C)O)NC(=O)[C@H](CCCCN)NC(=O)[C@@H](Cc3c[nH]c4ccccc34)NC(=O)[C@H](Cc3ccc(O)c(I)c3)NC2=O)C[C@@H]2c3cccc4[nH]cc(c34)C[C@H]21 [Example 16] (X1-[dK](X1)[dY][dY]C[Tyr(3-I)][dW]KTCT-NH2; disulfide 4-9) | 8.56 | 7.43 | 76.4 | 0.16 | 549 | – | – | – | –
3 | CCCN1C[C@H](CSCC(=O)NCCCC[C@H](NC(=O)CSC[C@@H]2C[C@@H]3c4cccc5[nH]cc(c45)C[C@H]3N(CCC)C2)C(=O)N[C@H](Cc2ccccc2)C(=O)N[C@H]2CSSC[C@@H](C(=O)N[C@H](C(N)=O)[C@@H](C)O)NC(=O)[C@H](CC)NC(=O)[C@H](CCCCN)NC(=O)[C@@H](Cc3c[nH]c4ccccc34)NC(=O)[C@H](Cc3ccc(O)cc3)NC2=O)C[C@@H]2c3cccc4[nH]cc(c34)C[C@H]21 [Example 17] | 17.6 | 54 | 106 | 0.18 | 496 | – | – | – | –
4 | CC[C@@H]1NC(=O)[C@H](CCCCN)NC(=O)[C@@H](Cc2c[nH]c3ccccc23)NC(=O)[C@H](Cc2ccc(O)cc2)NC(=O)[C@@H](NC(=O)[C@@H](Cc2ccccc2)NC(=O)[C@H](CCCCNC(=O)[C@@H](N)Cc2ccc(O)c(O)c2)NC(=O)[C@@H](N)Cc2ccc(O)c(O)c2)CSSC[C@@H](C(=O)N[C@H](C(N)=O)[C@@H](C)O)NC1=O [Example 18] (H-[Dopa]K(Dopa)[dF]CY[dW]K[Abu]CT-NH2; disulfide 4-9) | 3000 | 32 | 167 | 0.36 | 1000 | – | – | – | –
5 | CC[C@@H]1NC(=O)[C@H](CCCCN)NC(=O)[C@@H](Cc2c[nH]c3ccccc23)NC(=O)[C@H](Cc2ccc(O)cc2)NC(=O)[C@@H](NC(=O)[C@@H](Cc2ccccc2)NC(=O)[C@@H](N)Cc2ccc(O)c(O)c2)CSSC[C@@H](C(=O)N[C@H](C(N)=O)[C@@H](C)O)NC1=O [Example 19] | 3000 | 19.7 | 146 | 0.41 | 2250 | – | – | – | –
6 | CC[C@@H]1NC(=O)[C@H](CCCCN)NC(=O)[C@@H](Cc2c[nH]c3ccccc23)NC(=O)[C@H](Cc2ccc(O)cc2)NC(=O)[C@@H](NC(=O)[C@@H](Cc2ccccc2)NC(=O)CN(C)C(=O)N[C@H]2C[C@@H]3c4cccc5[nH]cc(c45)C[C@H]3N(C)C2)CSSC[C@@H](C(=O)N[C@H](C(N)=O)[C@@H](C)O)NC1=O [Example 20] | 95.2 | – | – | – | – | – | – | – | –
7 | CC[C@@H]1NC(=O)[C@H](CCCCN)NC(=O)[C@@H](Cc2c[nH]c3ccccc23)NC(=O)[C@H](Cc2ccc(O)cc2)NC(=O)[C@@H](NC(=O)[C@@H](Cc2ccccc2)NC(=O)CN(C)C(=O)N[C@H]2C[C@@H]3c4cccc5[nH]cc(c45)C[C@H]3N(C)C2)CSSC[C@@H](C(=O)N[C@H](C(N)=O)[C@@H](C)O)NC1=O [Example 27] | – | – | – | – | – | 140 | 0.02 | 22.8 | 1280
8 | CCCN1C[C@H](CNC(=O)CCCC(=O)N[C@H](Cc2ccccc2)C(=O)N[C@H]2CSSC[C@@H](C(=O)N[C@H](C(N)=O)[C@@H](C)O)NC(=O)[C@H](CC)NC(=O)[C@H](CCCCN)NC(=O)[C@@H](Cc3c[nH]c4ccccc34)NC(=O)[C@H](Cc3ccc(O)cc3)NC2=O)C[C@@H]2c3cccc4[nH]cc(c34)C[C@H]21 [Example 29] | 226 | – | – | 0.14 | – | – | – | – | –
9 | CCCN1C[C@H](CSCC(=O)NCCN2CCN(CC(=O)NCCN3CCN(CC(=O)N[C@H](Cc4ccccc4)C(=O)N[C@H]4CSSC[C@@H](C(=O)N[C@H](C(N)=O)[C@@H](C)O)NC(=O)[C@H](C(C)C)NC(=O)[C@H](CCCCN)NC(=O)[C@@H](Cc5c[nH]c6ccccc56)NC(=O)[C@H](Cc5ccc(O)c(I)c5)NC4=O)CC3)CC2)C[C@@H]2c3cccc4[nH]cc(c34)C[C@H]21 [Example 37] | 126 | – | 374 | 1.26 | 421 | – | – | – | –
10 | CC(C)[C@@H]1NC(=O)[C@H](CCCCN)NC(=O)[C@@H](Cc2c[nH]c3ccccc23)NC(=O)[C@H](Cc2ccc(O)c(I)c2)NC(=O)[C@@H](NC(=O)[C@@H](Cc2ccccc2)NC(=O)CN2CCN(CCNC(=O)CN3CCN(CCNC(=O)CSC[C@@H]4C[C@@H]5c6cccc7[nH]cc(c67)C[C@H]5N(C)C4)CC3)CC2)CSSC[C@@H](C(=O)N[C@H](C(N)=O)[C@@H](C)O)NC1=O [Example 39] | 310 | – | – | 0.42 | 241 | 136 | – | – | –
11 | CC(C)[C@@H]1NC(=O)[C@H](CCCCN)NC(=O)[C@@H](Cc2c[nH]c3ccccc23)NC(=O)[C@H](Cc2ccc(O)c(I)c2)NC(=O)[C@@H](NC(=O)[C@@H](Cc2ccccc2)NC(=O)COCCOCCNC(=O)CSC[C@@H]2C[C@@H]3c4cccc5[nH]cc(c45)C[C@H]3N(C)C2)CSSC[C@@H](C(=O)N[C@H](C(N)=O)[C@@H](C)O)NC1=O [Example 41] | 217 | – | – | – | – | – | – | – | –

From patent publication US20110065632A1, “PHARMACEUTICAL COMPOSITIONS OF SOMATOSTATIN-DOPAMINE CONJUGATES” (priority 2008, published 2011)
